Measured values reported in PubChem BioAssay AID1919006 (Molecular Pharmacology Branch, DTP, NCI, 2023).

System: 885512-296-R-J2-PDC complex spheroid growth, % test/control
Assay: Anticancer human tumor 885512-296-R-J2-PDC patient-derived breast carcinoma cell line growth inhibition [AhR]
Details: for IC50: curve of first compound; for viability, T/C: stronger effect = lower value
How it was run: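 Spheroids combined tumor cells with HUVEC endothelial cells and human MSCs as stroma. AhR antagonists were paired with standard or investigational drugs, each dosed in half-log steps down from near clinical Cmax, or from 10 microM where Cmax was unknown.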

[1] = second compound 0.1 µM, first compound 0.0316 µM
[2] = second compound 0.1 µM, first compound 0.1 µM
[3] = second compound 0.1 µM, first compound 0.316 µM
[4] = second compound 0.1 µM, first compound 1 µM
[5] = second compound 0.1 µM, first compound 3.16 µM
[6] = second compound 0.1 µM, first compound 10 µM
[7] = second compound 0.316 µM, first compound 0.0316 µM
[8] = second compound 0.316 µM, first compound 0.1 µM
[9] = second compound 0.316 µM, first compound 0.316 µM
[10] = second compound 0.316 µM, first compound 1 µM
[11] = second compound 0.316 µM, first compound 3.16 µM
[12] = second compound 0.316 µM, first compound 10 µM
[13] = second compound 1 µM, first compound 0.0316 µM
[14] = second compound 1 µM, first compound 0.1 µM
[15] = second compound 1 µM, first compound 0.316 µM
[16] = second compound 1 µM, first compound 1 µM
[17] = second compound 1 µM, first compound 3.16 µM
[18] = second compound 1 µM, first compound 10 µM
[19] = second compound 3.16 µM, first compound 0.0316 µM
[20] = second compound 3.16 µM, first compound 0.1 µM
[21] = second compound 3.16 µM, first compound 0.316 µM
[22] = second compound 3.16 µM, first compound 1 µM
[23] = second compound 3.16 µM, first compound 3.16 µM
[24] = second compound 3.16 µM, first compound 10 µM
[25] = second compound 10 µM, first compound 0.0316 µM
[26] = second compound 10 µM, first compound 0.1 µM
[27] = second compound 10 µM, first compound 0.316 µM
[28] = second compound 10 µM, first compound 1 µM
[29] = second compound 10 µM, first compound 3.16 µM
[30] = second compound 10 µM, first compound 10 µM
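Further: spheroids exposed to compounds for seven days.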

CC(C)CC(NC(=O)C(Cc1ccccc1)NC(=O)c1cnccn1)B(O)O (stereo not given) + Cc1cncc(-c2nc(NCCc3c[nH]c4ccccc34)c3ncn(C(C)C)c3n2)c1
IC50 (second compound 0.1 µM): 6.75 nM | IC50 (second compound 0.316 µM): 6.48 nM | IC50 (second compound 1 µM): 5.6 nM | IC50 (second compound 3.16 µM): 3.63 nM | IC50 (second compound 10 µM): < 0.949 nM | viability, T/C (second compound 0.1 µM, first compound 0.000949 µM): 112% | viability, T/C (second compound 0.1 µM, first compound 0.003 µM): 114% | viability, T/C (second compound 0.1 µM, first compound 0.00949 µM): 23.6% | viability, T/C (second compound 0.1 µM, first compound 0.03 µM): 1.75% | viability, T/C (second compound 0.1 µM, first compound 0.0949 µM): 0.64% | viability, T/C (second compound 0.1 µM, first compound 0.3 µM): 0.17% | viability, T/C (second compound 0.316 µM, first compound 0.000949 µM): 103% | viability, T/C (second compound 0.316 µM, first compound 0.003 µM): 99% | viability, T/C (second compound 0.316 µM, first compound 0.00949 µM): 25.7% | viability, T/C (second compound 0.316 µM, first compound 0.03 µM): 1.08% | viability, T/C (second compound 0.316 µM, first compound 0.0949 µM): 0.32% | viability, T/C (second compound 0.316 µM, first compound 0.3 µM): 0.14% | viability, T/C (second compound 1 µM, first compound 0.000949 µM): 79.2% | viability, T/C (second compound 1 µM, first compound 0.003 µM): 87.7% | viability, T/C (second compound 1 µM, first compound 0.00949 µM): 21.8% | viability, T/C (second compound 1 µM, first compound 0.03 µM): 0.9% | viability, T/C (second compound 1 µM, first compound 0.0949 µM): 0.08% | viability, T/C (second compound 1 µM, first compound 0.3 µM): 0.13% | viability, T/C (second compound 3.16 µM, first compound 0.000949 µM): 52.5% | viability, T/C (second compound 3.16 µM, first compound 0.003 µM): 61% | viability, T/C (second compound 3.16 µM, first compound 0.00949 µM): 16.3% | viability, T/C (second compound 3.16 µM, first compound 0.03 µM): 0.59% | viability, T/C (second compound 3.16 µM, first compound 0.0949 µM): 0.07% | viability, T/C (second compound 3.16 µM, first compound 0.3 µM): 0.16% | viability, T/C (second compound 10 µM, first compound 0.000949 µM): 16.7% | viability, T/C (second compound 10 µM, first compound 0.003 µM): 16.9% | viability, T/C (second compound 10 µM, first compound 0.00949 µM): 1.8% | viability, T/C (second compound 10 µM, first compound 0.03 µM): 0.43% | viability, T/C (second compound 10 µM, first compound 0.0949 µM): 0.16% | viability, T/C (second compound 10 µM, first compound 0.3 µM): 0.22%

Nc1ccccc1NC(=O)c1ccc(CNC(=O)OCc2cccnc2)cc1 + Cc1cncc(-c2nc(NCCc3c[nH]c4ccccc34)c3ncn(C(C)C)c3n2)c1
IC50 (second compound 0.1 µM): 1040 nM | IC50 (second compound 0.316 µM): 1120 nM | IC50 (second compound 1 µM): 1060 nM | IC50 (second compound 3.16 µM): 373 nM | IC50 (second compound 10 µM): < 31.6 nM | viability, T/C [1]: 85.6% | viability, T/C [2]: 102% | viability, T/C [3]: 80.5% | viability, T/C [4]: 47.3% | viability, T/C [5]: 31.2% | viability, T/C [6]: 12.6% | viability, T/C [7]: 86.9% | viability, T/C [8]: 94.4% | viability, T/C [9]: 72% | viability, T/C [10]: 49.4% | viability, T/C [11]: 32.7% | viability, T/C [12]: 12.2% | viability, T/C [13]: 82.3% | viability, T/C [14]: 78.7% | viability, T/C [15]: 77.7% | viability, T/C [16]: 48% | viability, T/C [17]: 29.6% | viability, T/C [18]: 15.2% | viability, T/C [19]: 56.6% | viability, T/C [20]: 61.3% | viability, T/C [21]: 49.5% | viability, T/C [22]: 40.4% | viability, T/C [23]: 25.1% | viability, T/C [24]: 15.2% | viability, T/C [25]: 21.3% | viability, T/C [26]: 19.4% | viability, T/C [27]: 15.9% | viability, T/C [28]: 11.6% | viability, T/C [29]: 9.94% | viability, T/C [30]: 9.37%

O=C(C=Cc1cccc(S(=O)(=O)Nc2ccccc2)c1)NO + Cc1cncc(-c2nc(NCCc3c[nH]c4ccccc34)c3ncn(C(C)C)c3n2)c1
IC50 (second compound 0.1 µM): 1010 nM | IC50 (second compound 0.316 µM): 1340 nM | IC50 (second compound 1 µM): 680 nM | IC50 (second compound 3.16 µM): 153 nM | IC50 (second compound 10 µM): < 31.6 nM | viability, T/C [1]: 77.7% | viability, T/C [2]: 93.9% | viability, T/C [3]: 70.5% | viability, T/C [4]: 45% | viability, T/C [5]: 30.8% | viability, T/C [6]: 7.26% | viability, T/C [7]: 86.3% | viability, T/C [8]: 80.5% | viability, T/C [9]: 74.2% | viability, T/C [10]: 50% | viability, T/C [11]: 37.5% | viability, T/C [12]: 7.14% | viability, T/C [13]: 96.1% | viability, T/C [14]: 72.5% | viability, T/C [15]: 65.2% | viability, T/C [16]: 41.1% | viability, T/C [17]: 31.1% | viability, T/C [18]: 9.39% | viability, T/C [19]: 52.2% | viability, T/C [20]: 62% | viability, T/C [21]: 39.5% | viability, T/C [22]: 31.8% | viability, T/C [23]: 21.8% | viability, T/C [24]: 10.2% | viability, T/C [25]: 20.6% | viability, T/C [26]: 20.6% | viability, T/C [27]: 19.5% | viability, T/C [28]: 16% | viability, T/C [29]: 12.6% | viability, T/C [30]: 5.42%

O=C(c1cc(Cc2n[nH]c(=O)c3ccccc23)ccc1F)N1CCN(C(=O)C2CC2)CC1 + Cc1cncc(-c2nc(NCCc3c[nH]c4ccccc34)c3ncn(C(C)C)c3n2)c1
IC50 (second compound 0.1 µM): 6620 nM | IC50 (second compound 0.316 µM): 7170 nM | IC50 (second compound 1 µM): 6440 nM | IC50 (second compound 3.16 µM): 3070 nM | IC50 (second compound 10 µM): < 31.6 nM | viability, T/C [1]: 109% | viability, T/C [2]: 102% | viability, T/C [3]: 107% | viability, T/C [4]: 112% | viability, T/C [5]: 86.4% | viability, T/C [6]: 29.7% | viability, T/C [7]: 107% | viability, T/C [8]: 98.4% | viability, T/C [9]: 97.2% | viability, T/C [10]: 109% | viability, T/C [11]: 95% | viability, T/C [12]: 31.3% | viability, T/C [13]: 85.3% | viability, T/C [14]: 82.7% | viability, T/C [15]: 99.1% | viability, T/C [16]: 87.2% | viability, T/C [17]: 81.9% | viability, T/C [18]: 30.3% | viability, T/C [19]: 54.4% | viability, T/C [20]: 60.1% | viability, T/C [21]: 62.5% | viability, T/C [22]: 60.1% | viability, T/C [23]: 49.8% | viability, T/C [24]: 24.6% | viability, T/C [25]: 15.5% | viability, T/C [26]: 19.7% | viability, T/C [27]: 17.1% | viability, T/C [28]: 17.1% | viability, T/C [29]: 17.5% | viability, T/C [30]: 15.2%
